According to US9408890B2, “Multivalent liposome formulations” (priority 2013, dated 2016):

How the values were obtained:
Assay type in all cases: cell-based, influenza A virus
[1] = system: Influenza A/Philippines X-79 (H3N2); conditions: 74,000 nM monovalent LSTc; data not shown
[2] = system: influenza A/Puerto Rico/8/34 (PR/8, H1N1); set-up: inhibition of hemagglutination: dose or concentration left out as unconfirmed
[3] = system: influenza A/Puerto Rico/8/34 (PR/8, H1N1)

Question: With “sialylneolacto-N-tetraose c [Monovalent LSTc]” as the substance, how does the “inhibition of infectivity of Philippines” value [1] read?
Answer: did not inhibit the infectivity

Question: And the inhibition of hemagglutination [2]?
Answer: did not inhibit hemagglutination

Question: And the “HAI Titer” value ([2]; four HA units of virus, human RBCs, reciprocal of last liposome dilution giving non-agglutinated RBCs)?
Answer: No inhibition

Question: And the “inhibition of PR/8 infection of MDCK cells (FIG. 3A)” value [3]?
Answer: did not significantly inhibited infection at high concentrations

Question: And the “inhibition of infectivity of PR/8” value ([3]; 74,000 nM monovalent LSTc)?
Answer: did not inhibit the infectivity
